# Experimental data from US4183935A, “Bispidine derivatives, their preparation, and drugs containing same” (priority 1977, dated 1980).
# Counter-ions that a name gives are not always drawn. Like-named read-outs stand apart in the source and are kept apart here.
# Experiments:
# Format in all cases: in vivo, rats (Sprague Dawley)
# [1] = in vivo; conditions: in vivo; rat, oral; dose at which the maximum effect is achieved; read-out: Maximum effect: Dose (maximum tolerated dose)
# Method: (§1) To determine their anti-arrhythmic activity, the substances were administered orally to rats (Sprague Dawley, weight 200-250 g) 45 minutes before starting a thiobutabarbital narcosis (100 mg/kg administered intraperitoneally). Aconitine was used to produce arrhythmias, and was infused intravenously 60 minutes after administration of the active substance (dosage rate 0.005 mg/kg per minute). In the untreated animals, arrhythmias manifest themselves after an average of 3.32 minutes, and their occurrence can be delayed by anti-arrhythmic agents, the delay being dependent on the dose. The ED50% is the does which increases by 50% the duration of infusion up to the occurrence of arrhythmias. R.E. is the relative effect, based on quinidine.ident.1.00. The maximum effect is that achieved by administering the maximum tolerated dose. .increment.% indicates the percentage by which the duration of the aconitine infusion can be increased. R.M.E. is the relative maximum effectiveness, based on quinidine.ident.1.00. The dose producing a toxic effect indicates the amount (in mg/kg) at which the first toxic symptoms such as cyanosis or changes in ECG occur. Q is the quotient of the toxic dose and the ED50%.
# [2] = test system: arrhythmias produced by aconitine; experiment: animal or person; conditions: for ED50: Rattus norvegicus, po, read-out: Effective dose ED50% (dose which increases by 50% the duration of infusion up to the occurrence of arrhythmias); for R.E. (relative effect, based on quinidine = 1.00): from ED50%; for R.M.E. (relative maximum effectiveness, based on quinidine = 1.00): from maximum effect; for Maximum effect: Δ% (percentage by which the duration of the aconitine infusion can be increased): rat, oral, at the maximum tolerated dose
# Method: as §1
# [3] = toxic effect: dose at which first toxic symptoms such as cyanosis or changes in ECG occur; conditions: for Toxic effect: Dose (dose producing a toxic effect): first toxic symptoms such as cyanosis or changes in ECG; for selectivity ratio: rat, in vivo, po
# Method: as §1
# [4] = toxic dose / ED50%, read-out: Q (quotient of the toxic dose and the ED50%)
SMILES,MTD [1] [mg/kg],ED50 [2] [mg/kg],"R.E. (relative effect, based on quinidine = 1.00) [2]","R.M.E. (relative maximum effectiveness, based on quinidine = 1.00) [2]",Maximum effect: Δ% (percentage by which the duration of the aconitine infusion can be increased) [2] [%],Toxic effect: Dose (dose producing a toxic effect) [3] [mg/kg],"selectivity ratio [3, 4]",selectivity ratio [3]
"Fc1ccc(CN2CC3CC(CN(Cc4ccccc4)C3)C2)cc1 [H H F 0, N-Benzyl-N'-(4-fluorobenzyl)-bispidine fumarate]",100,20.2,2.11,1.80,240,215,10.6,–
"Clc1cccc(CN2CC3CC(CN(Cc4ccccc4)C3)C2)c1 [H Cl H 0, N-benzyl-N'-(3-chlorobenzyl)-bispidine fumarate]",46.4,16.6,2.57,0.92,123,100,6,–
"c1ccc(CN2CC3CC(C2)CN(C(c2ccccc2)c2ccccc2)C3)cc1 [C6 H5 H H 0, N-Benzyl-N'-benzhydryl-bispidine fumarate]",215,20.4,2.09,1.54,205,464,22.8,–
"FC(F)(F)c1cccc(CN2CC3CC(CN(Cc4ccccc4)C3)C2)c1 [H CF3 H 0, N-Benzyl-N'-(3-trifluoromethylbenzyl)-bispidine fumarate]",100,25.4,1.68,1.82,242,215,–,–
"c1ccc(CN2CC3CC(C2)CN(CC(c2ccccc2)c2ccccc2)C3)cc1 [C6 H5 H H 1, N-benzyl-N'-2,2-diphenylethylbispidine fumarate x H2 O]",46.4,13,3.28,1.53,203,100,7.7,–
"Clc1ccc(CN2CC3CC(CN(Cc4ccccc4)C3)C2)cc1Cl [H Cl Cl 0, N-Benzyl-N'-(3,4-dichlorobenzyl)-bispidine fumarate]",215,15.6,2.74,2.13,283,464,29.7,–
"C=C[C@H]1C[N@@]2CC[C@H]1C[C@@H]2[C@@H](O)c1ccnc2ccc(OC)cc12 [Quinidine, reference compound]",215,42.7,1.00,1.00,133,464,–,10.9
